Test results from patent publication US20260262643A1, “HERBICIDAL BENZOXAZINES” (FMC CORPORATION, priority 2022, published 2026).

Tests used:
barnyardgrass [1] = test: Test C preemergence; format: in vivo, Echinochloa crusgalli; details: 0 to 100 scale (0 no effect, 100 complete control); for Barnyardgrass plant response rating: 125 g ai/ha, preemergence; for Plant response rating, Barnyardgrass: Preemergence, 500 g ai/ha, visual rating after 10 days
Method in brief: (§1)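 Pre: seeds in loam/sand, directed soil spray. Post: 1–2 leaf plants, 2–10 cm. Cmpd in non-phytotoxic solvent + surfactant. Greenhouse 10 d; visual rating vs untreated, 0 = none, 100 = complete control.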

pigweed, palmer [2] = test: Test C postemergence; format: in vivo, Amaranthus palmeri; details: 10 days
Method in brief: as §1

sedge, umbrella = test: Test D flooded paddy test; format: in vivo, Cyperus difformis; details: 250 g ai/ha, applied to paddy water, visual rating after 13 to 14 days, scale 0 to 100 (0 no effect, 100 complete control)
Method in brief: (§2)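 Compounds go straight into paddy water over 2-leaf plants in pots flooded to 3 cm. Greenhouse holding lasts 13 to 14 days. Injury is scored by eye against controls from 0 (none) to 100 (complete control).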

kochia [3] = test: Test C postemergence; format: in vivo, Bassia scoparia; details: 10 days
Method in brief: as §1

ducksalad = test: Test D flooded paddy test; format: in vivo, Heteranthera limosa; details: 250 g ai/ha, applied to paddy water, visual rating after 13 to 14 days, scale 0 to 100 (0 no effect, 100 complete control)
Method in brief: as §2

kochia [4] = test: Test C preemergence; format: in vivo, Bassia scoparia; details: 0 to 100 scale (0 no effect, 100 complete control); for Plant response rating, Kochia: Preemergence, 500 g ai/ha, visual rating after 10 days; for Kochia plant response rating: Test C, preemergence, 125 g ai/ha
Method in brief: as §1

oat, wild [5] = test: Test C postemergence; format: in vivo, Avena fatua; details: 10 days
Method in brief: as §1

corn [6] = test: Test C preemergence; format: in vivo, Zea mays; details: 0 to 100 scale (0 no effect, 100 complete control); for Plant response rating, Corn: Preemergence, 500 g ai/ha, visual rating after 10 days; for Corn plant response rating: Test C, preemergence, 125 g ai/ha
Method in brief: as §1

ragweed [7] = test: Test C preemergence; format: in vivo, Ambrosia artemisiifolia; details: 0 to 100 scale (0 no effect, 100 complete control); for Plant response rating, Ragweed: Preemergence, 500 g ai/ha, visual rating after 10 days; for Ragweed plant response rating: Test C, preemergence, 125 g ai/ha
Method in brief: as §1

ryegrass, Italian [8] = test: Test C preemergence; format: in vivo, Lolium multiflorum; details: 0 to 100 scale (0 no effect, 100 complete control); for Plant response rating, Ryegrass, Italian: Preemergence, 500 g ai/ha, visual rating after 10 days; for Ryegrass, Italian plant response rating: Test C, preemergence, 125 g ai/ha
Method in brief: as §1

soybean [9] = test: Test C postemergence; format: in vivo, Glycine max; details: 10 days
Method in brief: as §1

corn [10] = test: Test C postemergence; format: in vivo, Zea mays; details: 10 days
Method in brief: as §1

wheat [11] = test: Test C preemergence; format: in vivo, Triticum aestivum; details: 0 to 100 scale (0 no effect, 100 complete control); for Plant response rating, Wheat: Preemergence, 500 g ai/ha, visual rating after 10 days; for Wheat plant response rating: Test C, preemergence, 125 g ai/ha
Method in brief: as §1

blackgrass [12] = test: Test C postemergence; format: in vivo, Alopecurus myosuroides; details: 10 days
Method in brief: as §1

galium = test: Test C postemergence; format: in vivo, Galium aparine; details: 10 days
Method in brief: as §1

horseweed = test: Test C postemergence; format: in vivo, Erigeron canadensis; details: 10 days
Method in brief: as §1

pigweed, palmer [13] = test: Test C preemergence; format: in vivo, Amaranthus palmeri; details: 0 to 100 scale (0 no effect, 100 complete control); for Plant response rating, Pigweed, Palmer: Preemergence, 500 g ai/ha, visual rating after 10 days; for Pigweed, Palmer plant response rating: Test C, preemergence, 125 g ai/ha
Method in brief: as §1

barnyardgrass [14] = test: Test C postemergence; format: in vivo, Echinochloa crusgalli; details: 10 days
Method in brief: as §1

ryegrass, Italian [15] = test: Test C postemergence; format: in vivo, Lolium multiflorum; details: 10 days
Method in brief: as §1

barnyardgrass [16] = test: Test D flooded paddy test; format: in vivo, Echinochloa crus-galli; details: 250 g ai/ha, applied to paddy water, visual rating after 13 to 14 days, scale 0 to 100 (0 no effect, 100 complete control)
Method in brief: as §2

wheat [17] = test: Test C postemergence; format: in vivo, Triticum aestivum; details: 10 days
Method in brief: as §1

green foxtail [18] = test: Test C postemergence; format: in vivo, Setaria viridis; details: 10 days
Method in brief: as §1

green foxtail [19] = test: Test C preemergence; format: in vivo, Setaria viridis; details: 0 to 100 scale (0 no effect, 100 complete control); for Plant response rating, Foxtail, Green: Preemergence, 500 g ai/ha, visual rating after 10 days; for Foxtail, Green plant response rating: Test C, preemergence, 125 g ai/ha
Method in brief: as §1

ragweed [20] = test: Test C postemergence; format: in vivo, Ambrosia artemisiifolia; details: 10 days
Method in brief: as §1

oat, wild [21] = test: Test C preemergence; format: in vivo, Avena fatua; details: 0 to 100 scale (0 no effect, 100 complete control); for Plant response rating, Oat, Wild: Preemergence, 500 g ai/ha, visual rating after 10 days; for Oat, Wild plant response rating: Test C, preemergence, 125 g ai/ha
Method in brief: as §1

soybean [22] = test: Test C preemergence; format: in vivo, Glycine max; details: 0 to 100 scale (0 no effect, 100 complete control); for Plant response rating, Soybean: Preemergence, 500 g ai/ha, visual rating after 10 days; for Soybean plant response rating: Test C, preemergence, 125 g ai/ha
Method in brief: as §1

rice = test: Test D flooded paddy test; format: in vivo, Oryza sativa; details: 250 g ai/ha, applied to paddy water, visual rating after 13 to 14 days, scale 0 to 100 (0 no effect, 100 complete control)
Method in brief: as §2

blackgrass [23] = test: Test C preemergence; format: in vivo, Alopecurus myosuroides; details: 0 to 100 scale (0 no effect, 100 complete control); for Plant response rating, Blackgrass: Preemergence, 500 g ai/ha, visual rating after 10 days; for Blackgrass plant response rating: Test C, preemergence, 125 g ai/ha
Method in brief: as §1

[24] = 125 g ai/ha, postemergence, 0 to 100 scale, 0 no effect, 100 complete control
[25] = Postemergence, 500 g ai/ha, visual 0 to 100 scale (0 no effect, 100 complete control)

CCn1cnc(-c2cccc(C(=O)N3C[C@H](C)Oc4c(C)cccc43)c2)n1 [Compound 165]
10: Plant response rating, Pigweed, Palmer (pigweed, palmer [2]; [25]) | Plant response rating, Blackgrass (blackgrass [12]; [25]) | Plant response rating, Barnyardgrass (barnyardgrass [14]; [25])
60: Plant response rating, Horseweed (horseweed; [25])
0: Barnyardgrass plant response rating (barnyardgrass [1]) | Plant response rating, Barnyardgrass (barnyardgrass [1]) | Plant response rating, Pigweed, Palmer (pigweed, palmer [2]; [24]) | Plant response rating, Sedge, Umbrella (Flood) (sedge, umbrella) | Plant response rating, Kochia (kochia [3]; [24]) | Plant response rating, Kochia (kochia [3]; [25]) | Plant response rating, Ducksalad (Flood) (ducksalad) | Plant response rating, Kochia (kochia [4]) | Kochia plant response rating (kochia [4]) | Plant response rating, Oat, Wild (oat, wild [5]; [24]) | Plant response rating, Oat, Wild (oat, wild [5]; [25]) | Plant response rating, Corn (corn [6]) | Corn plant response rating (corn [6]) | Ragweed plant response rating (ragweed [7]) | Plant response rating, Ryegrass, Italian (ryegrass, Italian [8]) | Ryegrass, Italian plant response rating (ryegrass, Italian [8]) | Plant response rating, Corn (corn [10]; [24]) | Plant response rating, Corn (corn [10]; [25]) | Plant response rating, Wheat (wheat [11]) | Wheat plant response rating (wheat [11]) | Plant response rating, Blackgrass (blackgrass [12]; [24]) | Plant response rating, Galium (galium; [24]) | Plant response rating, Galium (galium; [25]) | Plant response rating, Horseweed (horseweed; [24]) | Plant response rating, Pigweed, Palmer (pigweed, palmer [13]) | Pigweed, Palmer plant response rating (pigweed, palmer [13]) | Plant response rating, Barnyardgrass (barnyardgrass [14]; [24]) | Plant response rating, Ryegrass, Italian (ryegrass, Italian [15]; [24]) | Plant response rating, Ryegrass, Italian (ryegrass, Italian [15]; [25]) | Plant response rating, Barnyardgrass (Flood) (barnyardgrass [16]) | Plant response rating, Wheat (wheat [17]; [24]) | Plant response rating, Wheat (wheat [17]; [25]) | Plant response rating, Foxtail, Green (green foxtail [18]; [24]) | Plant response rating, Foxtail, Green (green foxtail [18]; [25]) | Plant response rating, Foxtail, Green (green foxtail [19]) | Foxtail, Green plant response rating (green foxtail [19]) | Plant response rating, Ragweed (ragweed [20]; [24]) | Plant response rating, Ragweed (ragweed [20]; [25]) | Plant response rating, Oat, Wild (oat, wild [21]) | Oat, Wild plant response rating (oat, wild [21]) | Plant response rating, Soybean (soybean [22]) | Soybean plant response rating (soybean [22]) | Plant response rating, Rice (Flood) (rice) | Plant response rating, Blackgrass (blackgrass [23]) | Blackgrass plant response rating (blackgrass [23])
30: Plant response rating, Soybean (soybean [9]; [24]) | Plant response rating, Soybean (soybean [9]; [25])
20: Plant response rating, Ragweed (ragweed [7])

CC(C)c1ncn(-c2cc3c(c(C(=O)N4C[C@H](C)Oc5c(Cl)cccc54)c2)OCCCO3)n1 [Compound 158]
20: Plant response rating, Corn (corn [6]) | Plant response rating, Horseweed (horseweed; [24]) | Plant response rating, Horseweed (horseweed; [25]) | Oat, Wild plant response rating (oat, wild [21])
30: Plant response rating, Oat, Wild (oat, wild [5]; [24]) | Plant response rating, Wheat (wheat [17]; [24])
65: Plant response rating, Ducksalad (Flood) (ducksalad)
25: Plant response rating, Barnyardgrass (Flood) (barnyardgrass [16])
50: Plant response rating, Corn (corn [10]; [24]) | Soybean plant response rating (soybean [22])
70: Plant response rating, Kochia (kochia [3]; [24]) | Kochia plant response rating (kochia [4]) | Plant response rating, Barnyardgrass (barnyardgrass [14]; [25]) | Plant response rating, Ryegrass, Italian (ryegrass, Italian [15]; [25]) | Plant response rating, Wheat (wheat [17]; [25])
90: Plant response rating, Barnyardgrass (barnyardgrass [1]) | Plant response rating, Kochia (kochia [3]; [25]) | Plant response rating, Kochia (kochia [4]) | Plant response rating, Ragweed (ragweed [7]) | Plant response rating, Blackgrass (blackgrass [12]; [25]) | Plant response rating, Galium (galium; [25]) | Plant response rating, Foxtail, Green (green foxtail [18]; [25]) | Plant response rating, Ragweed (ragweed [20]; [24])
0: Corn plant response rating (corn [6]) | Plant response rating, Rice (Flood) (rice)
60: Barnyardgrass plant response rating (barnyardgrass [1]) | Plant response rating, Oat, Wild (oat, wild [5]; [25]) | Plant response rating, Corn (corn [10]; [25]) | Plant response rating, Foxtail, Green (green foxtail [18]; [24]) | Plant response rating, Blackgrass (blackgrass [23])
80: Plant response rating, Pigweed, Palmer (pigweed, palmer [2]; [24]) | Ragweed plant response rating (ragweed [7]) | Plant response rating, Ryegrass, Italian (ryegrass, Italian [8]) | Ryegrass, Italian plant response rating (ryegrass, Italian [8]) | Plant response rating, Ragweed (ragweed [20]; [25]) | Plant response rating, Oat, Wild (oat, wild [21]) | Plant response rating, Soybean (soybean [22])
100: Plant response rating, Pigweed, Palmer (pigweed, palmer [2]; [25]) | Plant response rating, Soybean (soybean [9]; [24]) | Plant response rating, Soybean (soybean [9]; [25]) | Plant response rating, Galium (galium; [24]) | Plant response rating, Pigweed, Palmer (pigweed, palmer [13]) | Pigweed, Palmer plant response rating (pigweed, palmer [13]) | Plant response rating, Foxtail, Green (green foxtail [19]) | Foxtail, Green plant response rating (green foxtail [19])
10: Wheat plant response rating (wheat [11])
75: Plant response rating, Sedge, Umbrella (Flood) (sedge, umbrella)
40: Plant response rating, Wheat (wheat [11]) | Plant response rating, Blackgrass (blackgrass [12]; [24]) | Plant response rating, Barnyardgrass (barnyardgrass [14]; [24]) | Plant response rating, Ryegrass, Italian (ryegrass, Italian [15]; [24]) | Blackgrass plant response rating (blackgrass [23])
